# According to patent publication US11802120B2, “Fused cyclic urea derivatives as CRHR2 antagonist” (RaQualia Pharma Inc., priority 2018, dated 2023):
# Target: T1, human CRHR2-alpha (Homo sapiens, UniProt Q13324)
# T1 sequence (Q13324 1-411): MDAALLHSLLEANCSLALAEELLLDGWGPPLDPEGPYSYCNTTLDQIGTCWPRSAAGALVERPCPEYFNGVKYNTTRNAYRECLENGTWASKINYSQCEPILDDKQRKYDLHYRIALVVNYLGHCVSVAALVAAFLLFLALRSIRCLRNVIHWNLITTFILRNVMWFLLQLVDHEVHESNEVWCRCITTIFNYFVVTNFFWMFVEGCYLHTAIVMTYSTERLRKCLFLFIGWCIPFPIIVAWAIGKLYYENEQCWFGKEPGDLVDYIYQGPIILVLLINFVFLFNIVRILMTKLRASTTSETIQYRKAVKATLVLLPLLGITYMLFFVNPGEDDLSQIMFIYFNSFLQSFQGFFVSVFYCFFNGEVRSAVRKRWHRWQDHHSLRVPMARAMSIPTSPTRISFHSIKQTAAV
# Assay: cAMP functional assay for human CRHR2 (LANCE Ultra cAMP, TR-FRET)
# Type: cell-based
# Conditions: CHO-K1 cells expressing human CRHR2-alpha, agonist human urocortin2 at EC80, cAMP; read-out: IC50 against CRHR2
# Summary of the method: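 First, starved and frozen CHO-K1 cells expressing the receptor are thawed into IBMX-containing HBSS buffer (pH 7.4). Next, compounds are added for 30 min at 25° C. Then agonist at EC80 (urocortin2 or CRF, per receptor) is added for another 30 min, followed by cAMP detection reagents.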
row,IC50 [nM],Structure (SMILES)
1,< 300,"CNC(=O)c1ccc(-n2c(=O)n(C[C@H]3CC[C@H](NC(=O)c4cc(Cl)cnc4C(F)(F)F)CC3)c3cc(F)ccc32)cn1 [Example 290, 5-(3-(((1r,4r)-4-(5-chloro-2-(trifluoromethyl)nico-tinamido)cyclohexyl)methyl)-5-fluoro-2-oxo-2,3-dihydro-1H-benzo[d]imidazol-1-yl)-N-methyl-picolinamide]"
2,< 300,"COc1cncc(-n2c(=O)n(C[C@H]3CC[C@H](NC(=O)c4cc(Cl)cnc4C(F)F)CC3)c3ccccc32)c1 [Example 683, 5-chloro-2-(difluoromethyl)-N-((1r,4r)-4-((3-(5-methoxy-pyridin-3-yl)-2-oxo-2,3-dihydro-1H-benzo[d]imidazol-1-yl)methyl)cyclohexyl) nicotinamide]"
3,< 300,"O=C(N[C@H]1CC[C@H](Cn2c(=O)n(-c3cnc4c(ccn4CCO)c3)c3ccccc32)CC1)c1cc(Cl)cnc1C(F)F [Example 666, 5-chloro-2-(difluoromethyl)-N-((1r,4r)-4-((3-(1-(2-hydroxyethyl)-1H-pyrrolo[2,3-b]pyridin-5-yl)-2-oxo-2,3-dihydro-1H-benzo[d]imidazol-1-yl)methyl)cyclohexyl)nicotinamide]"
4,< 300,"Cc1ncc(Cl)cc1C(=O)N[C@H]1CC[C@H](Cn2c(=O)n(-c3cccc(-c4cn[nH]c4)c3)c3ccccc32)CC1 [Example 696, N-((1r,4r)-4-((3-(3-(1H-pyrazol-4-yl)phenyl)-2-oxo-2,3-dihydro-1H-benzo[d]imidazol-1-yl)methyl)cyclohexyl)-5-chloro-2-methylnicotinamide]"
5,< 300,"CCOc1ccc(-n2c(=O)n(C[C@H]3CC[C@H](NC(=O)c4cc(Cl)cnc4C)CC3)c3cccnc32)cc1 [Example 402, 5-chloro-N-((1r,4r)-4-((3-(4-ethoxyphenyl)-2-oxo-2,3-dihydro-1H-imidazo[4,5-b]pyridin-1-yl)methyl)cyclo-hexyl)-2-methylnicotinamide]"
6,< 300,"O=C(N[C@H]1CC[C@H](Cn2c(=O)n(-c3ccnc(-n4ccnc4)c3)c3ccccc32)CC1)c1cc(Cl)cnc1C(F)F [Example 570, N-((1r,4r)-4-((3-(2-(1H-imidazol-1-yl)pyridin-4-yl)-2-oxo-2,3-dihydro-1H-benzo [d]imidazol-1-yl)methyl)cyclohexyl)-5-chloro-2-(difluoromethyl)nicotinamide]"
7,< 300,"COCCNc1ccc(-n2c(=O)n(C[C@H]3CC[C@H](NC(=O)c4cc(Cl)cnc4C(F)(F)F)CC3)c3ccccc32)cn1 [Example 664, 5-chloro-N-((1r,4r)-4-((3-(6-((2-methoxyethyl)amino)pyridin-3-yl)-2-oxo-2,3-dihydro-1H-benzo[d]imidazol-1-yl)methyl)cyclohexyl)-2-(trifluoromethyl)nicotinamide]"
8,< 300,"Cc1ncc(Cl)cc1C(=O)N[C@H]1CC[C@H](Cn2c(=O)n(-c3ccc(-n4ccnn4)cc3)c3ccccc32)CC1 [Example 470, N-((1r,4r)-4-((3-(4-(1H-1,2,3-triazol-1-yl)phenyl)-2-oxo-2,3-dihydro-1H-benzo[d]imidazol-1-yl)methyl)cyclohexyl)-5-chloro-2-methylnicotinamide]"
9,< 300,"O=C(N[C@H]1CC[C@H](Cn2c(=O)n(-c3ccc(NCC(F)F)nc3)c3ccccc32)CC1)c1cc(Cl)cnc1C(F)F [Example 464, 5-chloro-N-((1r,4r)-4-((3-(6-((2,2-difluoroethyl)amino)pyridin-3-yl)-2-oxo-2,3-dihydro-1H-benzo[d]imidazol-1-yl)methyl)cyclohexyl)-2-(difluoromethyl)nicotinamide]"
10,< 300,"O=C(N[C@H]1CC[C@H](Cn2c(=O)n(-c3cc(F)ccc3Cl)c3cnccc32)CC1)c1cc(Cl)cnc1C(F)F [Example 718, 5-chloro-N-((1r,4r)-4-((3-(2-chloro-5-fluorophenyl)-2-oxo-2,3-dihydro-1H-imidazo[4,5-c]pyridin-1-yl)methyl)cyclo-hexyl)-2-(difluoromethyl) nicotinamide]"
11,< 300,"Cc1ncc(Cl)cc1C(=O)N[C@H]1CC[C@H](Cn2c(=O)n(-c3ccc(N4CCN(C)CC4)nc3)c3ccccc32)CC1 [Example 55, 5-chloro-2-methyl-N-((1r,4r)-4-((3-(6-(4-methylpiperazin-1-yl)pyridin-3-yl)-2-oxo-2,3-dihydro-1H-benzo[d]imidazol-1-yl)methyl)cyclohexyl)nicotinamide]"
12,< 300,"Cc1ncc(Cl)cc1C(=O)N[C@H]1CC[C@H](Cn2c(=O)n(-c3cccc4nccn34)c3ccccc32)CC1 [Example 350, 5-chloro-N-((1r,4r)-4-((3-(imidazo[1,2-a]pyridin-5-yl)-2-oxo-2,3-dihydro-1H-benzo [d]imidazol-1-yl)methyl)cyclohexyl)-2-methylnico-tinamide]"
13,< 300,"Cc1ncc(Cl)cc1C(=O)N[C@H]1CC[C@H](Cn2c(=O)n(-c3ccc4oc(N)nc4c3)c3ccccc32)CC1 [Example 263, N-((1r,4r)-4-((3-(2-aminobenzo[d]oxazol-5-yl)-2-oxo-2,3-dihydro-1H-benzo[d]imidazol-1-yl)methyl)cyclohexyl)-5-chloro-2-methylnicotinamide]"
14,< 300,"CNc1ccc(-n2c(=O)n(C[C@H]3CC[C@H](NC(=O)c4cc(Cl)cnc4C(F)F)CC3)c3c(F)cccc32)cn1 [Example 672, 5-chloro-2-(difluoromethyl)-N-((1r,4r)-4-((7-fluoro-3-(6-(methylamino)pyridin-3-yl)-2-oxo-2,3-dihydro-1H-benzo [d]imidazol-1-yl)methyl)cyclo-hexyl)nicotinamide]"
15,< 300,"CNC(=O)c1ccc(-n2c(=O)n(C[C@H]3CC[C@H](NC(=O)c4cc(Cl)cnc4C)CC3)c3ccc(OC)cc32)cn1 [Example 258, 5-(3-(((1r,4r)-4-(5-chloro-2-methylnicotinamido)cyclo-hexyl)methyl)-6-methoxy-2-oxo-2,3-dihydro-1H-benzo [d]imidazol-1-yl)-N-methylpicolinamide]"
16,< 300,"O=C(N[C@H]1CC[C@H](Cn2c(=O)n(Cc3ccncc3)c3ccccc32)CC1)c1cc(Cl)ccc1C(F)(F)F [Example 281, 5-chloro-N-((1r,4r)-4-((2-oxo-3-(pyridin-4-ylmethyl)-2,3-dihydro-1H-benzo[d]imidazol-1-yl)methyl)cyclohexyl)-2-(trifluoromethyl)benzamide]"
17,< 300,"O=C(N[C@H]1CC[C@H](Cn2c(=O)n(-c3ccc4nccnc4c3)c3ccccc32)CC1)c1cc(Cl)cnc1C(F)F [Example 495, 5-chloro-2-(difluoromethyl)-N-((1r,4r)-4-((2-oxo-3-(quinoxalin-6-yl)-2,3-dihydro-1H-benzo[d]imidazol-1-yl)methyl)cyclo-hexyl)nicotinamide]"
18,< 300,"O=C(N[C@H]1CC[C@H](Cn2c(=O)n(-c3ccc(-c4ncc[nH]4)nc3)c3ccccc32)CC1)c1cc(Cl)cnc1C(F)F [Example 733, N-((1r,4r)-4-((3-(6-(1H-imidazol-2-yl)pyridin-3-yl)-2-oxo-2,3-dihydro-1H-benzo[d]imidazol-1-yl)methyl)cyclohexyl)-5-chloro-2-(difluoromethyl)nicotinamide]"
19,< 300,"Cc1ncc(Cl)cc1C(=O)N[C@H]1CC[C@H](Cn2c(=O)n(-c3cccnc3C#N)c3ccccc32)CC1 [Example 239, 5-chloro-N-((1r,4r)-4-((3-(2-cyanopyridin-3-yl)-2-oxo-2,3-dihydro-1H-benzo[d]imidazol-1-yl)methyl)cyclohexyl)-2-methylnicotinamide]"
20,< 300,"Cc1ncc(Cl)cc1C(=O)N[C@H]1CC[C@H](Cn2c(=O)n(-c3ccc(C(=O)NC4CC4)nc3)c3ccccc32)CC1 [Example 151, 5-(3-(((1r,4r)-4-(5-chloro-2-methylnicotinamido)cyclo-hexyl)methyl)-2-oxo-2,3-dihydro-1H-benzo[d]imidazol-1-yl)-N-cyclopropyl-picolinamide]"
21,< 300,"Cn1ncc2c(-n3c(=O)n(C[C@H]4CC[C@H](NC(=O)c5cc(Cl)cnc5C(F)F)CC4)c4ccccc43)cccc21 [Example 374, 5-chloro-2-(difluoromethyl)-N-((1r,4r)-4-((3-(1-methyl-1H-indazol-4-yl)-2-oxo-2,3-dihydro-1H-benzo[d]imidazol-1-yl)methyl)cyclohexyl) nicotinamide]"
22,< 300,"Cc1ncc(Cl)cc1C(=O)N[C@H]1CC[C@H](Cn2c(=O)n(-c3cnc4c(c3)CCN4)c3ccccc32)CC1 [Example 152, 5-chloro-N-((1r,4r)-4-((3-(2,3-dihydro-1H-pyrrolo[2,3-b]pyridin-5-yl)-2-oxo-2,3-dihydro-1H-benzo[d]imidazol-1-yl)methyl)cyclohexyl)-2-methylnicotinamide]"
23,< 300,"Cc1ncc(Cl)cc1C(=O)N[C@H]1CC[C@H](Cn2c(=O)n(-c3cc(N(C)C)ccc3C#N)c3ccccc32)CC1 [Example 273, 5-chloro-N-((1r,4r)-4-((3-(2-cyano-5-(dimethylamino)phenyl)-2-oxo-2,3-dihydro-1H-benzo[d]imidazol-1-yl)methyl)cyclohexyl)-2-methylnicotinamide]"
24,< 300,"CNC(=O)c1ccc(-n2c(=O)n(C[C@H]3CC[C@H](NC(=O)c4cc(Cl)ccc4OC(F)F)CC3)c3ccccc32)cn1 [Example 533, 5-(3-(((1r,4r)-4-(5-chloro-2-(difluoromethoxy)benzamido)cyclohexyl)methyl)-2-oxo-2,3-dihydro-1H-benzo[d]imidazol-1-yl)-N-methylpicolinamide]"
